Measured values from US10399991B2, “Kv1.3 inhibitors and their medical applications” (4SC AG, priority 2015, dated 2019).
pIC50: −log10 of the molar value.

How the values were obtained:
Kv1.3 = Kv1.3 (Homo sapiens (Human), UniProt P22001); assay: Patch-clamp assay for inhibitory activity on Kv1.3 (whole cell patch-clamp recording); format: cell-based; details: n≥2 per concentration
Method: Patch-Clamp Assay for Inhibitory Activity on Kv1.3
For a description of a Kv1.3 patch-clamp assay, see Grissmer et al., Mol. Pharmacol. 1994, 45, 1227; whole cell patch-clamp recording was performed with n≥2 individual experiments at each compound concentration using different cells. Three or more different concentrations were determined per dose response curve.

[1] = system: Peripheral blood mononuclear cells (PBMC); assay: T cell proliferation assay (anti-CD3 activated PBMC, BrdU based cell proliferation ELISA); details: human PBMC, TRAM-34 (5 μM), 50 ng/ml anti-CD3, 48 hours; read-out: IC50(BrdU incorporation)
Excerpt: T cell proliferation assay (in analogy to Pegoraro et al., Bioorg. Med. Chem. Lett. 2009, 19, 2299)
Peripheral blood mononuclear cells (PBMC) from healthy human donors were isolated by centrifugation over a density gradient in an aqueous solution, comprising a high molecular weight polysaccharide and sodium diatrizionate, and having a density of 1.077±0.001 (Ficoll-Hypaque by Sigma-Aldrich, Germany; according to manufacturer's instructions). Purified PBMC were washed twice with PBS and resuspended in RPMI1640 culture medium (Gibco—Life Technologies) supplemented with 10% heat inactivated fetal calf serum, 1.5 mM L-glutamine, 100 U penicillin/ml, and 100 […] (all from PAA—GE Healthcare). For stimulation, PBMC were seeded at 1×10^5 cells/well, incubated with TRAM-34 (5 μM) and the test compounds for 4 h and activated with 50 ng/ml anti-CD3 (from eBioscience). After 48 hours proliferation was measured using a BrdU based cell proliferation ELISA according to the manual.

female Dark Agouti rats = assay: Pristane-induced Arthritis (PIA) model; format: in vivo, rat; details: for Arthritic Index (AI): maximum AI=16, controls AI around 14; for amelioration of arthritis: Example 53 60 mg/kg p.o. sid, Example 34 45 mg/kg p.o. bid
Method: Pristane-induced Arthritis (PIA) Model:
Arthritis was induced in female Dark Agouti rats by intradermal injection of 150 μL/rat pristane into the base of the tail on DAY0, according to Vingsbo et al., Am. J. Pathol. 1996, 149, 1675. Compound treatment was started on DAY16 and continued until DAY30, dosing Example 53 at 60 mg/kg, p.o., sid, and Example 34 at 45 mg/kg, p.o., bid, each in a lipophilic formulation. As a positive control, methotrexate (MTX) was dosed i.p., sid, with 0.05 mg/kg, also starting DAY16. Arthritis development was monitored daily by a macroscopic scoring system for the four limbs ranging from 0 to 4 (0=no visible effects of arthritis; 1=edema and/or erythema of one digit; 2=edema and/or erythema of two joints; 3=edema and/or erythema of more than two joints; 4=severe arthritis of the entire paw and digits, associated with ankylosis and deformity of the paw.), resulting in an Arthritic Index (AI) reflecting the sum of scores of all 4 limbs per rat (maximum AI=16).

Sequence of Kv1.3 (P22001 whole entry): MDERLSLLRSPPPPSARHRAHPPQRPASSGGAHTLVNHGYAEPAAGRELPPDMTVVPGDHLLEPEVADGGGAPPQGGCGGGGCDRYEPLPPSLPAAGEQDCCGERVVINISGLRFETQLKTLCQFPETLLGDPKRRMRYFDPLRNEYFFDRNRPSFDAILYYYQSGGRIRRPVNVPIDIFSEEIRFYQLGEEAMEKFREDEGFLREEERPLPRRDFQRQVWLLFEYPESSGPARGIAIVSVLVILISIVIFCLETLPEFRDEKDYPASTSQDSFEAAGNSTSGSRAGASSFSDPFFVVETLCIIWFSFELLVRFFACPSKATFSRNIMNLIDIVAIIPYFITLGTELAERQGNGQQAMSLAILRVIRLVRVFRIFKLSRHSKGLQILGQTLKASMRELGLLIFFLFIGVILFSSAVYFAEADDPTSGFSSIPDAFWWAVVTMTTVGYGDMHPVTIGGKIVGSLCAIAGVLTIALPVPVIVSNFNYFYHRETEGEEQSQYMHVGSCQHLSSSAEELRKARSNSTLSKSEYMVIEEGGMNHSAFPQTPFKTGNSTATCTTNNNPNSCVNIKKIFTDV

Structure (SMILES)	pIC50 (Kv1.3)	pIC50 [1]	Arthritic Index (AI) (female Dark Agouti rats; 45 mg/kg, p.o., bid, DAY16 to DAY30)	amelioration of arthritis (female Dark Agouti rats; DAY16 to DAY30)	Arthritic Index (AI) (female Dark Agouti rats; 60 mg/kg, p.o., sid, DAY16 to DAY30)	Arthritic Index (AI) (female Dark Agouti rats; 0.05 mg/kg, i.p., sid, from DAY16)
Cc1c(-c2ccccc2)c2cc3c(C)coc3c(C)c2oc1=O [Example 9, 3,6,9-trimethyl-5-phenyl-7H-furo[3,2-g]chromen-7-one]	≥ 6.30	≥ 5.92				
Cc1c(-c2ccccc2Cl)c2cc3c(C)coc3c(C)c2oc1=O [Example 11, 5-(2-chlorophenyl)-3,6,9-trimethyl-7H-furo[3,2-g]chromen-7-one]	≥ 6.30	5.52 to 5.89				
Cc1coc2c(C)c3[nH]c(=O)c(Br)c(-c4ccccc4)c3cc12 [Example 26, 6-bromo-3,9-dimethyl-5-phenylfuro[3,2-g]quinolin-7(8H)-one]	≥ 6.30	≥ 5.92				
Cc1c(-c2ccccc2)c2cc3c(C)coc3c(C)c2n(C)c1=O [Example 34, 3,6,8,9-tetramethyl-5-phenylfuro[3,2-g]quinolin-7(8H)-one]	≥ 6.30	5.52 to 5.89	around 9.1	significant amelioration of arthritis		
Cc1c(-c2ccccc2Cl)c2cc3c(C)coc3c(C)c2[nH]c1=O [Example 40, 5-(2-chlorophenyl)-3,6,9-trimethylfuro[3,2-g]quinolin-7(8H)-one]	≥ 6.30	≥ 5.92				
Cc1c2oc(=O)cc(-c3ccccc3)c2cc2c(C3CC3)coc12 [Example 41, 3-cyclopropyl-9-methyl-5-phenyl-7H-furo[3,2-g]chromen-7-one]	≥ 6.30	5.52 to 5.89				
Cc1c(-c2cccnc2)c2cc3c(C)coc3c(C)c2n(C)c1=O [Example 55, 3,6,8,9-tetramethyl-5-(pyridin-3-yl)furo[3,2-g]quinolin-7(8H)-one]	5.82 to 6.30	4.82 to 5.51				
CN(Cc1cnc2nc(N)nc(N)c2n1)c1ccc(C(=O)N[C@@H](CCC(=O)O)C(=O)O)cc1 [MTX, methotrexate, reference compound]						~8.7

The next lines start with results.

pIC50 (Kv1.3)	Structure (SMILES)	pIC50 [1]	Arthritic Index (AI) (female Dark Agouti rats; 45 mg/kg, p.o., bid, DAY16 to DAY30)	amelioration of arthritis (female Dark Agouti rats; DAY16 to DAY30)	Arthritic Index (AI) (female Dark Agouti rats; 60 mg/kg, p.o., sid, DAY16 to DAY30)	Arthritic Index (AI) (female Dark Agouti rats; 0.05 mg/kg, i.p., sid, from DAY16)
≥ 6.30	CCOc1ccccc1-c1c(C)c(=O)oc2c(C)c3occ(C)c3cc12 [Example 10, 5-(2-ethoxyphenyl)-3,6,9-trimethyl-7H-furo[3,2-g]chromen-7-one]	≥ 5.92				
≥ 6.30	CCc1coc2c(C)c3oc(=O)c(C)c(-c4ccccc4)c3cc12 [Example 16, 3-ethyl-6,9-dimethyl-5-phenyl-7H-furo[3,2-g]chromen-7-one]	≥ 5.92				
≥ 6.30	Cc1c(-c2ccccc2)c2cc3c(C)coc3nc2oc1=O [Example 25, 3,6-dimethyl-5-phenyl-7H-furo[2,3-b]pyrano[3,2-e]pyridin-7-one]	5.52 to 5.89				
≥ 6.30	Cc1c(-c2ccccc2F)c2cc3c(C)coc3c(C)c2[nH]c1=O [Example 30, 5-(2-fluorophenyl)-3,6,9-trimethylfuro[3,2-g]quinolin-7(8H)-one]	5.52 to 5.89				
≥ 6.30	Cc1c(-c2ccccc2)c2cc3c(C)coc3c(C)c2[nH]c1=O [Example 31, 3,6,9-trimethyl-5-phenylfuro[3,2-g]quinolin-7(8H)-one]	≥ 5.92				
5.82 to 6.30	Cc1csc2c(C)c3oc(=O)cc(-c4ccccc4)c3cc12 [Example 37, 6,9-dimethyl-4-phenyl-2H-thieno[3,2-g]chromen-2-one]	4.82 to 5.51				
≥ 6.30	Cc1c(-c2ccccc2)c2cc3c(C)csc3c(C)c2oc1=O [Example 43, 3,6,9-trimethyl-4-phenyl-2H-thieno[3,2-g]chromen-2-one]	5.52 to 5.89				
≥ 6.30	Cc1c(-c2ccccc2)c2cc3c(C)coc3nc2n(C)c1=O [Example 49, 3,6,8-trimethyl-5-phenylfuro[2,3-b][1,8]naphthyridin-7(8H)-one]	4.82 to 5.51				
≥ 6.30	Cc1c(-c2cccnc2)c2cc3c(C)coc3c(C)c2oc1=O [Example 53, 3,6,9-trimethyl-5-(pyridin-3-yl)-7H-furo[3,2-g]chromen-7-one]	5.52 to 5.89		significant amelioration of arthritis	around 10.4	
≥ 6.30	Cc1c(-c2cccnc2)c2cc3c(C)coc3c(C)c2[nH]c1=O [Example 54, 3,6,9-trimethyl-5-(pyridin-3-yl)furo[3,2-g]quinolin-7(8H)-one]	4.82 to 5.51				
